Each structure is given as a SMILES string.

Usually Ki stands for the equilibrium dissociation constant of an inhibitor or competing ligand from its target.

The experiment addresses Casein kinase II subunit alpha (Zea mays, UniProt P28523). Description: Kinase Inhibition Assay. To be noted: pH 7.5; 22 °C. As to the method: In vitro kinase assay using purified enzyme, was incubated at room temperature with substrate, and test compounds in the presence of 100 uM ATP/ [gamma-33P] ATP. 33P incorporation was measured with scintillation counter. IC50 values were calculated from dose-response curves; from these calculated apparent inhibition constants (Ki) were obtained using the Cheng-Prusoff equation: Ki = IC50/ (1 + ([ATP]/Km)).

Chain of Casein kinase II subunit alpha (P28523 whole entry): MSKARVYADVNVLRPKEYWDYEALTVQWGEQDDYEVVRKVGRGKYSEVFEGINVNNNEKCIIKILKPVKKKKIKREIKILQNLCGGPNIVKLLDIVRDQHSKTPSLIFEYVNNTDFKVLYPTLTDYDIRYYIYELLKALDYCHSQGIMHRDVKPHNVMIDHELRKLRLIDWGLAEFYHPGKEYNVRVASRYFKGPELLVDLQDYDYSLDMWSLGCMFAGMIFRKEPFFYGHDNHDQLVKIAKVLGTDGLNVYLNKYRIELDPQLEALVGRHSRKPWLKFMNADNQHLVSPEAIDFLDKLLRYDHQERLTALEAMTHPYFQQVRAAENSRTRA

Take `O=c1c2c(O)cccc2oc2cccc(O)c12` [1,8-dihydroxy-9H-xanthen-9-one]: the Ki was over 40 µM. Under `O=C1c2cccc(O)c2C(=O)c2c(O)cccc21` [1,8-dihydroxy-anthraquinone] stands over 40 µM.

Values taken from BindingDB's records for doi:10.1074/jbc.M209367200 (University of Padova, 2003).
